# Test results taken from patent US20090192226A1, “Materials and Methods for Treatment of Pathological Ocular Vascular Proliferation” (priority 2007, published 2009).
# Residues, ends and D or L forms follow the SMILES beside them.
# Experiments:
# [1] = test system: pups undergoing the OIR model; assay: OIR model in pups, oral gavage: pre-retinal neovascularization, vaso-obliteration, vascular density; format: in vivo, mouse; conditions: for reduction in pre-retinal neovascularization relative to vehicle / area of vaso-obliteration: OIR pups; for reduction in pre-retinal neovascularization relative to vehicle: gavaged twice daily P12-P17, H&E cross-sections on P17; for area of vaso-obliteration: gavaged twice daily P12-P17, assessed in P17 pups, vehicle 30.4±7.9%
# From the text: Retinopathy of prematurity (ROP) is the major cause of blindness in children. Supplementation with arginine or glutamine results in improved clinical outcomes in premature infants. In this study the protective effect of oral administration of Arg-Gln alone and in combination with DHA was examined in pups undergoing the OIR model. METHODS: Nursing dams and pups were returned to normal room air on P12 (postnatal day 12) and gavaged twice daily with: Arg-Gln, DHA, Arg-Gln+DHA or vehicle (P12-P17). Normoxic pups were treated in an identical manner. On P17 the pups were perfused with FITC-labeled dextran. One eye was embedded in paraffin, cross-sectioned and H&E (hematoxylin and eosin) stained for analysis of pre-retinal neovascularization. The retina from the second eye was removed and underwent microscopic analysis for the vessel regrowth, which was evaluated by vessel density.
# [2] = test system: retinal cell culture model; assay: retinal cell culture model, transepithelial resistance (TER); format: cell-based
# [3] = test system: vascular endothelial growth factor (VEGF); assay: retinal cell culture model, vascular endothelial growth factor (VEGF); format: cell-based
compound,measurement,setting,value
"CC/C=C\C/C=C\C/C=C\C/C=C\C/C=C\C/C=C\CCC(=O)O [DHA, decosahexaenoic acid]",reduction in pre-retinal neovascularization relative to vehicle,[1],45±2%
same,area of vaso-obliteration,[1],3.6±1.3%
"N=C(N)NCCC[C@H](N)C(=O)N[C@@H](CCC(N)=O)C(=O)O [Arg-Gln dipeptide, arginyl-glutamine] (H-Arg-Gln-OH)",pre-retinal neovascularization (result in words),"[1]; OIR mouse model, conclusions",dramatically inhibited
same,vaso-obliteration (result in words),"[1]; OIR mouse model, conclusions",reduced
same,"intra-retinal vascular density, a measure of vascular regrowth","[1]; OIR pups following hyperoxia exposure, P17, compared to vehicle treated and normoxic pups",restored
same,reduction in pre-retinal neovascularization relative to vehicle,[1],35±1%
same,area of vaso-obliteration,[1],4.8±1.0%
same,transepithelial resistance (TER),[2],increased
same,vascular endothelial growth factor (VEGF),[3],decreased
